Measurements reported in patent EP3057950B1, “PHENYL LINKED QUINOLINYL MODULATORS OF ROR-GAMMA-T” (Janssen Pharmaceutica NV, priority 2013, dated 2015).
Counter-ions that a name gives are not always drawn.

Assays:
[1] = target: T1, wild type human RORγt ligand binding domain (RORγt LBD) (Homo sapiens, UniProt P51449); assay: RORγt ThermoFluor® Assay (thermal shift, binding affinity); conditions: pH 7.0, estimated from concentration response curves
T1 construct: His-tag (N); TurboTEV protease cleavage site (ENLYFQG) (N); made in house; host or cells: E. coli (pHIS1, modified pET expression vector)
T1 sequence (P51449 269-508 limits assumed): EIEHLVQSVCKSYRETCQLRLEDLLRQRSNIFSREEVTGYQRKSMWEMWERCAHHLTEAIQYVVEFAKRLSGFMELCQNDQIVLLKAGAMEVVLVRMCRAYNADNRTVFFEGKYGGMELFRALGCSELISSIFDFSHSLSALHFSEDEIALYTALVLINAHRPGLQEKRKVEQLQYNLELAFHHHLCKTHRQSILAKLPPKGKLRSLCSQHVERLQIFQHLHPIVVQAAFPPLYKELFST
How it was run: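 Thermal shift assay on 0.065 mg/mL RORγt LBD with 60 µM 1,8-ANS in 100 mM Hepes pH 7.0, 10 mM NaCl, 2.5 mM GSH, 0.002% Tween-20. Heated at 1 °C/min, fluorescence read at 500 nm.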

[2] = target: T2, wild type human RORγt LBD (Homo sapiens, UniProt P51449); assay: RORγt Reporter Assay (GAL4-RORγt LBD luciferase in HEK293T cells); assay type: cell-based; conditions: HEK293T cells; for IC50: compounds for 24 hours, read-out: RORγt reporter Assay, IC50; for inhibition at 6 µM: HEK-293T, read-out: RORγt reporter Assay, % inhibition @ 6 µM, @ 6 µM
T2 construct: expressed in transfected cells; host or cells: HEK293T
T2 sequence (P51449 269-508 limits assumed): T1 sequence (P51449 269-508 limits assumed)
How it was run: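 HEK293T cells transiently co-transfected with GAL4-DBD–human RORγt LBD (or AF2 mutant) and GAL4-responsive firefly luciferase reporter; renilla luciferase normalised transfection and viability. Compounds applied 24 h in 5% lipid-reduced FCS; firefly/renilla ratio plotted against concentration.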

[3] = test system: IL-17 production by CD4 T cells; assay: Human Th17 Assay (IL-17 production by CD4 T cells under Th17 differentiation conditions); assay type: cell-based; conditions: 3 days, IL-17 in supernatant
Procedure: The human Th17 assay tests the effect of RORγt modulatory compounds on IL-17 production by CD4 T cells under conditions which favor Th17 differentiation. Total CD4^+ T cells were isolated from the peripheral blood mononuclear cells (PBMC) of healthy donors using a CD4^+ T cell isolation kit II, following the manufacturer's instructions (Miltenyi Biotec). […] 50 µL of compound at titrated concentrations in DMSO were added into each well at final DMSO concentration at 0.2%. Cells were incubated for 1 hour, then 50 µL of Th17 cell differentiation medium was added to each well. The final concentrations of antibodies and cytokines (R&D Systems) in differentiation medium were: 3x10^6/mL anti-CD3/CD28 beads (prepared using human T cell activation/expansion kit, Miltenyi Biotec), 10 µg/mL anti-IL4, 10 µg/mL anti-IFNγ, 10 ng/mL […], 10 ng/mL IL23, 50 ng/mL IL6, 3 ng/mL TGFβ and 20 U/mL IL2. Cells were cultured at 37 °C and 5% CO2 for 3 days. Supernatants were collected and the accumulated IL-17 in culture was measured by using MULTI-SPOT® Cytokine Plate following manufacture's instruction (Meso Scale Discovery). The plate was read using Sector Imager 6000, and IL-17 concentration was extrapolated from the standard curve. The IC50s were determined by GraphPad.

SMILES | Kd [1] [nM] | IC50 [2] [nM] | inhibition at 6 µM [2] [%] | IC50 ([3]; Homo sapiens, CD4+ T, 72 h) [nM] | RORγt reporter Assay, % inhibition @ 6 µM [2] [%] | IC50 [3] [nM] | IC50 ([3]; 72 h) [nM]
COc1nc2ccc(C(O)(c3cncn3C)C3CCN(C(C)=O)CC3)cc2c(Cl)c1-c1cccc(C(F)(F)F)c1 (single isomer, unassigned) [Example 1b, 1-(4-((4-Chloro-2-methoxy-3-(3-(trifluoromethyl)phenyl)quinolin-6-yl)(hydroxy)(1-methyl-1H-imidazol-5-yl)methyl)piperidin-1-yl)ethanone] | 130 | 160 | 89 | 400 | – | – | –
COc1nc2ccc(C(O)(c3cncn3C)C3CCN(C(C)=O)CC3)cc2c(Cl)c1-c1cccc(C(F)(F)F)c1 (single isomer, unassigned) [Example 1c, 1-(4-((4-Chloro-2-methoxy-3-(3-(trifluoromethyl)phenyl)quinolin-6-yl)(hydroxy)(1-methyl-1H-imidazol-5-yl)methyl)piperidin-1-yl)ethanone] | 33 | 110 | – | – | 95 | 310 | –
COc1nc2ccc(C(O)(c3cncn3C)C3CCN(C(C)=O)CC3)cc2c(C#N)c1-c1cccc(C(F)(F)F)c1 (single isomer, unassigned) [Example 2b, 6-((1-Acetylpiperidin-4-yl)(hydroxy)(1-methyl-1H-imidazol-5-yl)methyl)-2-methoxy-3-(3-(trifluoromethyl)phenyl)quinoline-4-carbonitrile] | 130 | 200 | 91 | – | – | 2900 | –
COc1nc2ccc(C(O)(c3cncn3C)C3CCN(C(C)=O)CC3)cc2c(C#N)c1-c1cccc(C(F)(F)F)c1 (single isomer, unassigned) [Example 2c, 6-((1-Acetylpiperidin-4-yl)(hydroxy)(1-methyl-1H-imidazol-5-yl)methyl)-2-methoxy-3-(3-(trifluoromethyl)phenyl)quinoline-4-carbonitrile] | 140 | 170 | – | – | 95 | 670 | –
COc1nc2ccc(C(O)(c3cncn3C)c3cnnn3C)cc2c(Cl)c1-c1cccc(C(F)(F)F)c1 (single isomer, unassigned) [Example 3b, (4-Chloro-2-methoxy-3-(3-(trifluoromethyl)phenyl)quinolin-6-yl)(1-methyl-1H-1,2,3-triazol-5-yl)(1-methyl-1H-imidazol-5-yl)methanol] | 0.56 | 3 | 96 | – | – | 13 | –
COc1nc2ccc(C(O)(c3cncn3C)c3cnnn3C)cc2c(Cl)c1-c1cccc(C(F)(F)F)c1 (single isomer, unassigned) [Example 3c, (4-Chloro-2-methoxy-3-(3-(trifluoromethyl)phenyl)quinolin-6-yl)(1-methyl-1H-1,2,3-triazol-5-yl)(1-methyl-1H-imidazol-5-yl)methanol] | 2.3 | 6.6 | – | – | 98 | 43 | –
COc1c(-c2ccccc2)c(Cl)nc2ccc(C(O)(c3cnnn3C)c3cnc(C)n3C)cc12 (single isomer, unassigned) [Example 40c, (2-Chloro-4-metboxy-3-phenylquinolin-6-yl)(1,2-dimethyl-1H-imidazol-5-yl)(1-methyl-1H-1,2,3-triazol-5-yl)methanol] | – | – | – | 210 | 103 | – | –
Cn1cncc1C(O)(c1ccc(Cl)cc1)c1ccc2nc(Cl)c(-c3ccccc3)c(Cl)c2c1 (stereo not shown) [Example 65, (4-Chlorophenyl)(2,4-dichloro-3-phenylquinolin-6-yl)(1-methyl-1H-imidazol-5-yl)methanol] | – | – | – | – | – | – | 1800
Cc1nc(C)c(C(O)(c2ccc3nc(Cl)c(-c4ccccc4)c(Cl)c3c2)c2cncn2C)s1 (stereo not shown) [Example 68, (2,4-Dichloro-3-phenylquinolin-6-yl)(2,4-dimethylthiazol-5-yl)(1-methyl-1H-imidazol-5-yl)methanol] | – | – | – | – | – | – | 20
OC(c1ccccc1)(c1ccc2nc(Cl)c(-c3ccccc3Cl)c(Cl)c2c1)c1ncco1 (stereo not shown) [Example 74, (2,4-Dichloro-3-(2-chlorophenyl)quinolin-6-yl)(oxazol-2-yl)(phenyl)methanol] | 11000 | > 6000 | 60 | – | – | – | –
N#Cc1nc2ccc(C(O)(c3ccc(C(F)(F)F)nc3)c3cccc(Cl)c3)cc2cc1-c1ccccc1 (stereo not shown) [Example 75, 6-((3-Chlorophenyl)(hydroxy)(6-(trifluoromethyl)pyridin-3-yl)methyl)-3-phenylquinoline-2-carbonitrile] | 14000 | 2900 | 99 | – | – | – | –
N#Cc1nc2ccc(C(O)(c3cccc(Cl)c3)c3ccnc(C(F)(F)F)c3)cc2c(C#N)c1-c1ccccc1 (stereo not shown) [Example 76, 6-((3-Chlorophenyl)(hydroxy)(2-(trifluoromethyl)pyridin4-yl)methyl)-3-phenylquinoline-2,4-dicarbonitrile] | 18000 | ~2000 | 80 | – | – | – | –
OC(c1cccc(Cl)c1)(c1ccnc(C(F)(F)F)c1)c1ccc2nc(Cl)c(-c3ccccc3)c(Cl)c2c1 (stereo not shown) [Example 77, (3-Chlorophenyl)(2,4-dichloro-3-phenylquinolin-6-yl)(2-(trifluoromethyl)pyridin-4-yl)methanol] | 12000 | > 6000 | 48 | – | – | – | –
CN1CCC(C(O)(c2cccnc2)c2ccc3nc(Cl)c(-c4ccccc4)c(Cl)c3c2)CC1 (stereo not shown) [Example 78, (2,4-Dichloro-3-phenylquinolin-6-yl)(1-methylpiperidin4-yl)(pyridin-3-yl)methanol•TFA] | 14000 | > 6000 | 33 | – | – | – | –
CCCCc1c(-c2ccccc2)c(OC(C)C)nc2ccc(C(O)(c3ccncc3)c3cncn3C)cc12 (stereo not shown) [Example 80, (4-Butyl-2-isopropoxy-3-phenylquinolin-6-yl)(1-methyl-1H-imidazol-5-yl)(pyridin4-yl)methanol•TFA] | 12000 | > 6000 | 72 | – | – | – | –
CNCCN(C)c1nc2ccc(C(O)(c3ccncc3)c3cncn3C)cc2c(Cl)c1-c1ccccc1 (stereo not shown) [Example 82] | 11000 | > 6000 | 18 | – | – | – | –
CN(C)c1nc2ccc(C(O)(c3ccncc3)c3ccccn3)cc2c(Cl)c1-c1ccccc1 (stereo not shown) [Example 84, (4-Chloro-2-(dimethylamino)-3-phenylquinolin-6-yl)(pyridin-2-yl)(pyridin4-yl)methanol•TFA] | 17000 | 3500 | 93 | – | – | – | –
CN(C)c1c(-c2ccccc2)c(Cl)nc2ccc(C(O)(c3ccccn3)c3cncn3C)cc12 (stereo not shown) [Example 85, (2-Chloro-4-(dimethylamino)-3-phenylquinolin-6-yl)(1-methyl-1H-imidazol-5-yl)(pyridin-2-yl)methanol•TFA] | 20000 | 3500 | 81 | – | – | – | –
Cc1nc(C)c(C(O)(c2ccc(Cl)cc2)c2ccc3nc(Cl)c(-c4ccccc4)c(Cl)c3c2)s1 (stereo not shown) [Example 87, (4-Chlorophenyl)(2,4-dichloro-3-phenylquinolin-6-yl)(2,4-dimethylthiazol-5-yl)methanol] | 12000 | > 6000 | 56 | – | – | – | –
COc1nc2ccc(C(O)(c3ncccn3)c3cncn3C)cc2c(OC)c1-c1ccccc1 (stereo not shown) [Example 88, (2,4-Dimethoxy-3-phenylquinolin-6-yl)(1-methyl-1H-imidazol-5-yl)(pyrimidin-2-yl)methanol] | 20000 | > 6000 | 32 | – | – | – | –
OC(c1cccnc1)(c1ccc2nc(Cl)c(-c3ccccc3)c(Cl)c2c1)C1CCNCC1 (stereo not shown) [Example 91, (2,4-Dichloro-3-phenylquinolin-6-yl)(piperidin-4-yl)(pyridin-3-yl)methanol•TFA] | 21000 | > 6000 | 0 | – | – | – | –
